In PubChem BioAssay AID1259407 (Chemical Carcinogenesis Research Information System (CCRIS), 2018):
Activity calls are given as the source filed them. The rule behind the calls is not given here.

Tested on: CCRIS mutagenicity, Ames/micronucleus/aberration tests
Experiment: CCRIS mutagenicity studies
[1] = Test System: AMES SALMONELLA TYPHIMURIUM, Strain/Indicator: TA98, Metabolic Activation: NONE, Method: PREINCUBATION
[2] = Test System: AMES SALMONELLA TYPHIMURIUM, Strain/Indicator: TA98, Metabolic Activation: RAT, LIVER, S-9, PCB, Method: PREINCUBATION
[3] = Test System: AMES SALMONELLA TYPHIMURIUM, Strain/Indicator: TA100, Metabolic Activation: NONE, Method: PREINCUBATION
[4] = Test System: AMES SALMONELLA TYPHIMURIUM, Strain/Indicator: TA100, Metabolic Activation: RAT, LIVER, S-9, PCB, Method: PREINCUBATION
[5] = Test System: AMES SALMONELLA TYPHIMURIUM, Strain/Indicator: TA98, Metabolic Activation: NONE, Method: STANDARD PLATE
[6] = Test System: AMES SALMONELLA TYPHIMURIUM, Strain/Indicator: TA100, Metabolic Activation: NONE, Method: STANDARD PLATE

`O=[N+]([O-])c1ccc(CNc2ncnc3c2ncn3[C@@H]2O[C@H](CO)[C@@H](O)[C@H]2O)cc1` was tested. Which mutagenic call (Test System: AMES SALMONELLA TYPHIMURIUM, Strain/Indicator: TA98(1,8-DNP), Metabolic Activation: NONE, Method: PREINCUBATION) did it give?
The mutagenic call was “inactive; negative”.

And the mutagenic call (Test System: AMES SALMONELLA TYPHIMURIUM, Strain/Indicator: TA98(1,8-DNP), Metabolic Activation: RAT, LIVER, S-9, PCB, Method: PREINCUBATION)?
The mutagenic call was “inactive; negative”.

And the mutagenic call (Test System: AMES SALMONELLA TYPHIMURIUM, Strain/Indicator: TA98(NR), Metabolic Activation: NONE, Method: PREINCUBATION)?
The mutagenic call was “inactive; negative”.

And the mutagenic call (Test System: AMES SALMONELLA TYPHIMURIUM, Strain/Indicator: TA98(NR), Metabolic Activation: RAT, LIVER, S-9, PCB, Method: PREINCUBATION)?
The mutagenic call was “inactive; negative”.

And the mutagenic call [1]?
Its mutagenic call is “inactive; negative”.

And the mutagenic call [2]?
Its mutagenic call is “inactive; negative”.

And the mutagenic call (Test System: AMES SALMONELLA TYPHIMURIUM, Strain/Indicator: TA100(1,8-DNP), Metabolic Activation: NONE, Method: PREINCUBATION)?
Its mutagenic call is “inactive; negative”.

What about the mutagenic call (Test System: AMES SALMONELLA TYPHIMURIUM, Strain/Indicator: TA100(1,8-DNP), Metabolic Activation: RAT, LIVER, S-9, PCB, Method: PREINCUBATION) of the same compound?
The mutagenic call was “inactive; negative”.

And the mutagenic call (Test System: AMES SALMONELLA TYPHIMURIUM, Strain/Indicator: TA100(NR), Metabolic Activation: NONE, Method: PREINCUBATION)?
Its mutagenic call is “inactive; negative”.

And the mutagenic call (Test System: AMES SALMONELLA TYPHIMURIUM, Strain/Indicator: TA100(NR), Metabolic Activation: RAT, LIVER, S-9, PCB, Method: PREINCUBATION)?
Its mutagenic call is “inactive; negative”.

And the mutagenic call [3]?
The mutagenic call was “inactive; negative”.

And the mutagenic call [4]?
Its mutagenic call is “inactive; negative”.

And the mutagenic call (Test System: AMES SALMONELLA TYPHIMURIUM, Strain/Indicator: YG1020, Metabolic Activation: NONE, Method: PREINCUBATION)?
Its mutagenic call is “active; positive”.

What about the mutagenic call (Test System: AMES SALMONELLA TYPHIMURIUM, Strain/Indicator: YG1020, Metabolic Activation: RAT, LIVER, S-9, PCB, Method: PREINCUBATION) of the same compound?
The mutagenic call was “inactive; negative”.

And the mutagenic call (Test System: AMES SALMONELLA TYPHIMURIUM, Strain/Indicator: YG1021, Metabolic Activation: NONE, Method: PREINCUBATION)?
The mutagenic call was “active; positive”.

What about the mutagenic call (Test System: AMES SALMONELLA TYPHIMURIUM, Strain/Indicator: YG1021, Metabolic Activation: RAT, LIVER, S-9, PCB, Method: PREINCUBATION) of the same compound?
Its mutagenic call is “active; positive”.

And the mutagenic call (Test System: AMES SALMONELLA TYPHIMURIUM, Strain/Indicator: YG1024, Metabolic Activation: NONE, Method: PREINCUBATION)?
Its mutagenic call is “active; positive”.

And the mutagenic call (Test System: AMES SALMONELLA TYPHIMURIUM, Strain/Indicator: YG1024, Metabolic Activation: RAT, LIVER, S-9, PCB, Method: PREINCUBATION)?
The mutagenic call was “inactive; negative”.

What about the mutagenic call (Test System: AMES SALMONELLA TYPHIMURIUM, Strain/Indicator: YG1025, Metabolic Activation: NONE, Method: PREINCUBATION) of the same compound?
The mutagenic call was “inactive; negative”.

What about the mutagenic call (Test System: AMES SALMONELLA TYPHIMURIUM, Strain/Indicator: YG1025, Metabolic Activation: RAT, LIVER, S-9, PCB, Method: PREINCUBATION) of the same compound?
The mutagenic call was “inactive; negative”.

And the mutagenic call (Test System: AMES SALMONELLA TYPHIMURIUM, Strain/Indicator: YG1026, Metabolic Activation: NONE, Method: PREINCUBATION)?
Its mutagenic call is “inactive; negative”.

What about the mutagenic call (Test System: AMES SALMONELLA TYPHIMURIUM, Strain/Indicator: YG1026, Metabolic Activation: RAT, LIVER, S-9, PCB, Method: PREINCUBATION) of the same compound?
Its mutagenic call is “inactive; negative”.

And the mutagenic call (Test System: AMES SALMONELLA TYPHIMURIUM, Strain/Indicator: YG1029, Metabolic Activation: NONE, Method: PREINCUBATION)?
The mutagenic call was “inactive; negative”.

What about the mutagenic call (Test System: AMES SALMONELLA TYPHIMURIUM, Strain/Indicator: YG1029, Metabolic Activation: RAT, LIVER, S-9, PCB, Method: PREINCUBATION) of the same compound?
Its mutagenic call is “inactive; negative”.

With `COc1cc(CCCS(=O)(=O)O)ccc1O[C@H](Cc1cccc(OC)c1O)CS(=O)(=O)O` as the compound, how does the mutagenic call (Test System: AMES SALMONELLA TYPHIMURIUM, Strain/Indicator: TA98, Metabolic Activation: HAMSTER, LIVER, S-9, AROCLOR 1254, Method: PREINCUBATION) read?
The mutagenic call was “inactive; negative”.

What about the mutagenic call [1] of the same compound?
The mutagenic call was “inactive; negative”.

What about the mutagenic call (Test System: AMES SALMONELLA TYPHIMURIUM, Strain/Indicator: TA98, Metabolic Activation: RAT, LIVER, S-9, AROCLOR 1254, Method: PREINCUBATION) of the same compound?
The mutagenic call was “inactive; negative”.

And the mutagenic call (Test System: AMES SALMONELLA TYPHIMURIUM, Strain/Indicator: TA100, Metabolic Activation: HAMSTER, LIVER, S-9, AROCLOR 1254, Method: PREINCUBATION)?
The mutagenic call was “inactive; negative”.

And the mutagenic call [3]?
The mutagenic call was “inactive; negative”.

And the mutagenic call (Test System: AMES SALMONELLA TYPHIMURIUM, Strain/Indicator: TA100, Metabolic Activation: RAT, LIVER, S-9, AROCLOR 1254, Method: PREINCUBATION)?
Its mutagenic call is “inactive; negative”.

What about the mutagenic call (Test System: AMES SALMONELLA TYPHIMURIUM, Strain/Indicator: TA1535, Metabolic Activation: HAMSTER, LIVER, S-9, AROCLOR 1254, Method: PREINCUBATION) of the same compound?
The mutagenic call was “inactive; negative”.

What about the mutagenic call (Test System: AMES SALMONELLA TYPHIMURIUM, Strain/Indicator: TA1535, Metabolic Activation: NONE, Method: PREINCUBATION) of the same compound?
Its mutagenic call is “inactive; negative”.

And the mutagenic call (Test System: AMES SALMONELLA TYPHIMURIUM, Strain/Indicator: TA1535, Metabolic Activation: RAT, LIVER, S-9, AROCLOR 1254, Method: PREINCUBATION)?
Its mutagenic call is “inactive; negative”.

What about the mutagenic call (Test System: AMES SALMONELLA TYPHIMURIUM, Strain/Indicator: TA1537, Metabolic Activation: HAMSTER, LIVER, S-9, AROCLOR 1254, Method: PREINCUBATION) of the same compound?
Its mutagenic call is “inactive; negative”.

What about the mutagenic call (Test System: AMES SALMONELLA TYPHIMURIUM, Strain/Indicator: TA1537, Metabolic Activation: NONE, Method: PREINCUBATION) of the same compound?
The mutagenic call was “inactive; negative”.

And the mutagenic call (Test System: AMES SALMONELLA TYPHIMURIUM, Strain/Indicator: TA1537, Metabolic Activation: RAT, LIVER, S-9, AROCLOR 1254, Method: PREINCUBATION)?
The mutagenic call was “inactive; negative”.

For `Cc1ccc(/C=C/c2ccc([N+](=O)[O-])cc2)cc1`, which mutagenic call (Test System: AMES SALMONELLA TYPHIMURIUM, Strain/Indicator: TA98 (NR), Metabolic Activation: NONE, Method: STANDARD PLATE) is on record?
The mutagenic call was “inactive; negative”.

And the mutagenic call (Test System: AMES SALMONELLA TYPHIMURIUM, Strain/Indicator: TA98 (NR), Metabolic Activation: S-9, Method: STANDARD PLATE)?
The mutagenic call was “active; positive”.

And the mutagenic call [5]?
The mutagenic call was “active; positive”.

And the mutagenic call (Test System: AMES SALMONELLA TYPHIMURIUM, Strain/Indicator: TA98, Metabolic Activation: RAT, LIVER, S-9, AROCLOR, Method: STANDARD PLATE)?
The mutagenic call was “active; positive”.

What about the mutagenic call (Test System: AMES SALMONELLA TYPHIMURIUM, Strain/Indicator: TA98, Metabolic Activation: S-9, Method: STANDARD PLATE) of the same compound?
Its mutagenic call is “active; positive”.

And the mutagenic call (Test System: AMES SALMONELLA TYPHIMURIUM, Strain/Indicator: TA100 (NR), Metabolic Activation: NONE, Method: STANDARD PLATE)?
Its mutagenic call is “inactive; negative”.

What about the mutagenic call (Test System: AMES SALMONELLA TYPHIMURIUM, Strain/Indicator: TA100 (NR), Metabolic Activation: S-9, Method: STANDARD PLATE) of the same compound?
The mutagenic call was “active; positive”.

What about the mutagenic call [6] of the same compound?
Its mutagenic call is “active; positive”.

What about the mutagenic call (Test System: AMES SALMONELLA TYPHIMURIUM, Strain/Indicator: TA100, Metabolic Activation: RAT, LIVER, S-9, AROCLOR, Method: STANDARD PLATE) of the same compound?
The mutagenic call was “active; positive”.

What about the mutagenic call (Test System: AMES SALMONELLA TYPHIMURIUM, Strain/Indicator: TA100, Metabolic Activation: S-9, Method: STANDARD PLATE) of the same compound?
Its mutagenic call is “active; positive”.

For `CCCNCC(=O)NC(=O)C=[N+]=[N-]`, which mutagenic call (Test System: UDS RODENT CELLS, Strain/Indicator: THY INCORP (NON-S-PHASE), Metabolic Activation: NONE, Method: AUTORADIOGRAPHY) is on record?
The mutagenic call was “active; positive”.

What does the source list for `CC(=O)Oc1ccc2c(CBr)cc(=O)oc2c1`?
mutagenic call [1]: inactive; negative; mutagenic call [2]: inactive; negative; mutagenic call [3]: inactive; negative; mutagenic call [4]: inactive; negative; mutagenic call (Test System: E. COLI, Strain/Indicator: WP2 UVRA, Metabolic Activation: NONE, Method: PREINCUBATION): inactive; negative

Which results are given for `CC(N)[13C](=O)O` (stereo not drawn)?
mutagenic call (Test System: AMES SALMONELLA TYPHIMURIUM, Strain/Indicator: TA97, Metabolic Activation: NONE, Method: PREINCUBATION): inactive; negative; mutagenic call (Test System: AMES SALMONELLA TYPHIMURIUM, Strain/Indicator: TA97, Metabolic Activation: RAT, LIVER, S-9, AROCLOR 1254, Method: PREINCUBATION): inactive; negative; mutagenic call (Test System: AMES SALMONELLA TYPHIMURIUM, Strain/Indicator: TA102, Metabolic Activation: NONE, Method: PREINCUBATION): inactive; negative; mutagenic call (Test System: AMES SALMONELLA TYPHIMURIUM, Strain/Indicator: TA102, Metabolic Activation: RAT, LIVER, S-9, AROCLOR 1254, Method: PREINCUBATION): inactive; negative

Which mutagenic call [5] does the source give for `O=C(Nc1cccc(Br)c1)c1csc([N+](=O)[O-])c1` here?
The mutagenic call was “active; positive”.

What about the mutagenic call [6] of the same compound?
The mutagenic call was “active; positive”.
